{"source": "patent US9229008B2", "about": "“IL-8 level as a determinant of responsivity of a cancer to treatment” (Merck Sharp & Dohme Corp., priority 2008, dated 2016)", "test_system": "IL-8", "assay": "IL-8 ELISA of growth media of A2058 melanoma cells", "type": "cell-based, human", "conditions": "A2058 B-RAF mutant melanoma cells, 8 hours exposure; DMSO control 21024", "experimental": "Experiments were also performed wherein A2058 B-RAF mutant melanoma cells were treated with ERK inhibitor #1 (structure set forth herein), ERK inhibitor #2 (structure set forth herein), the PD MEK inhibitor\n[drawing 23] or DMSO as a negative-control, for 8 hours.\nThese experiments were performed using IL-8 ELISAs from R&D Systems (Minneapolis, Minn.). Approximately 1×10^6 A2058 cells were plated onto 10 cm dishes containing 10 ml of growth media. The following day, compound was added and allowed to incubate for 8 hours. The media was removed from the plates, diluted 32× and used in the ELISA.", "data": [{"smiles": "Cn1cnc2c(F)c(Nc3ccc(Br)cc3Cl)c(C(=O)NOCCO)cc21", "note": "[AR]", "values": [{"measurement": "IL-8 levels in growth media", "value": 1632, "unit": "pg/mL"}]}, {"smiles": "O=C(NOC[C@H](O)CO)c1ccc(F)c(F)c1Nc1ccc(F)cc1F", "note": "[PD]", "values": [{"measurement": "IL-8 levels in growth media", "value": 2080, "unit": "pg/mL"}]}]}
